According to ChEMBL document CHEMBL1128617, “4-Deoxy-4-aminoavermectins with potent broad spectrum antiparasitic activities” (1995):

How the values were obtained:
Type in all cases: functional
[1] = test system: Oesophagostomum columbianum; assay: Antiparasitic activity against Oesophagostomum columbianum at dose of 0.10 mg/kg in sheep anthelmintic test; conditions: dose 0.1 mg/kg
[2] = test system: Teladorsagia circumcincta; assay: Antiparasitic activity against Ostertagia circumcincta at dose of 0.10 mg/kg in sheep anthelmintic test; conditions: dose 0.1 mg/kg
Haemonchus contortus [3] = assay: Antiparasitic activity against Haemonchus contortus at dose of 0.10 mg/kg in sheep anthelmintic test; conditions: dose 0.1 mg/kg
Cooperia [4] = assay: Antiparasitic activity against Cooperia […] at dose of 0.10 mg/kg in sheep anthelmintic test; conditions: dose 0.1 mg/kg
Trichostrongylus axei [5] = assay: Antiparasitic activity against Trichostrongylus axei at dose of 0.10 mg/kg in sheep anthelmintic test; conditions: dose 0.1 mg/kg
[6] = test system: Trichostrongylus colubriformis; assay: Antiparasitic activity against Trichostrongylus colubriformis at dose of 0.10 mg/kg in sheep anthelmintic test; conditions: dose 0.1 mg/kg
Artemia = assay: In vitro antiparasitic activity in brine shrimp assay
[7] = test system: Oesophagostomum columbianum; assay: Antiparasitic activity against Oesophagostomum columbianum at dose of 0.05 mg/kg in sheep anthelmintic test
[8] = test system: Teladorsagia circumcincta; assay: Antiparasitic activity against Ostertagia circumcincta at dose of 0.05 mg/kg in sheep anthelmintic test
Trichostrongylus axei [9] = assay: Antiparasitic activity against Trichostrongylus axei at dose of 0.05 mg/kg in sheep anthelmintic test
Cooperia oncophora = assay: Antiparasitic activity against Cooperia oncophora at dose of 0.05 mg/kg in sheep anthelmintic test
Haemonchus contortus [10] = assay: Antiparasitic activity against Haemonchus contortus at dose of 0.05 mg/kg in sheep anthelmintic test
[11] = test system: Trichostrongylus colubriformis; assay: Antiparasitic activity against Trichostrongylus colubriformis at dose of 0.05 mg/kg in sheep anthelmintic test
Cooperia [12] = assay: Antiparasitic activity against Cooperia […] at dose of 0.05 mg/kg in sheep anthelmintic test

| SMILES | Reduction [1] | Reduction [2] | Reduction (Haemonchus contortus [3]) | Reduction (Cooperia [4]) | Reduction (Trichostrongylus axei [5]) | Reduction [6] | IC100 (Artemia) | Reduction [7] | Reduction [8] | Reduction (Trichostrongylus axei [9]) | Reduction (Cooperia oncophora) | Reduction (Haemonchus contortus [10]) | Reduction [11] | Reduction (Cooperia [12]) |
| --- | --- | --- | --- | --- | --- | --- | --- | --- | --- | --- | --- | --- | --- | --- |
| CCC(C)[C@H]1O[C@]2(C=C[C@@H]1C)C[C@@H]1C[C@@H](C/C=C(\C)[C@@H](O[C@H]3C[C@H](OC)[C@@H](O[C@H]4C[C@H](OC)[C@H](NC(=O)NC)[C@H](C)O4)[C@H](C)O3)[C@@H](C)/C=C/C=C3\CO[C@@H]4[C@H](O)C(C)=C[C@@H](C(=O)O1)[C@]34O)O2 (stereo not given in full) | >95% | 51% | >95% | >95% | >95% | 76% | 430 ng/mL |  |  |  |  |  |  |  |
| CCC(C)[C@H]1O[C@]2(C=C[C@@H]1C)C[C@@H]1C[C@@H](C/C=C(\C)[C@@H](O[C@H]3C[C@H](OC)[C@H](NC(C)=O)[C@H](C)O3)[C@@H](C)/C=C/C=C3\CO[C@@H]4[C@H](O)C(C)=C[C@@H](C(=O)O1)[C@]34O)O2 (stereo not given in full) | 76% | >95% | <50% | <50% | >95% | >95% | 1300 ng/mL |  |  |  |  |  |  |  |
| CCC(C)[C@H]1O[C@]2(C=C[C@@H]1C)C[C@@H]1C[C@@H](C/C=C(\C)[C@@H](O[C@H]3C[C@H](OC)[C@@H](O[C@H]4C[C@H](OC)[C@H](N)[C@H](C)O4)[C@H](C)O3)[C@@H](C)/C=C/C=C3\CO[C@@H]4[C@H](O)C(C)=C[C@@H](C(=O)O1)[C@]34O)O2 (stereo not given in full) | >95% | >95% | >95% | >95% | <50% | 51% | 1730 ng/mL |  |  |  |  |  |  |  |
| CCC(C)[C@H]1O[C@]2(C=C[C@@H]1C)C[C@@H]1C[C@@H](C/C=C(\C)[C@@H](O[C@H]3C[C@H](OC)[C@@H](O[C@H]4C[C@H](OC)[C@H](N(C)C(C)=O)[C@H](C)O4)[C@H](C)O3)[C@@H](C)/C=C/C=C3\CO[C@@H]4[C@H](O)C(C)=C[C@@H](C(=O)O1)[C@]34O)O2 (stereo not given in full) |  |  |  |  |  |  | 650 ng/mL | >95% | >95% | >95% | >95% | >95% | >95% | >95% |
| CCC(C)[C@H]1O[C@]2(C=C[C@@H]1C)C[C@@H]1C[C@@H](C/C=C(\C)[C@@H](O[C@H]3C[C@H](OC)[C@@H](O[C@H]4C[C@H](OC)[C@H](NC=O)[C@H](C)O4)[C@H](C)O3)[C@@H](C)/C=C/C=C3\CO[C@@H]4[C@H](O)C(C)=C[C@@H](C(=O)O1)[C@]34O)O2 (stereo not given in full) |  |  |  |  |  |  | 380 ng/mL | >95% | >95% | >95% | >95% | >95% | >95% | >95% |
| CCC(C)[C@H]1O[C@]2(C=C[C@@H]1C)C[C@@H]1C[C@@H](C/C=C(\C)[C@@H](O[C@H]3C[C@H](OC)[C@@H](O[C@H]4C[C@H](OC)[C@H](NC(=O)c5ccccc5)[C@H](C)O4)[C@H](C)O3)[C@@H](C)/C=C/C=C3\CO[C@@H]4[C@H](O)C(C)=C[C@@H](C(=O)O1)[C@]34O)O2 (stereo not given in full) |  |  |  |  |  |  | 28000 ng/mL | >95% | 76% | <50% | >95% | 76% | <50% | >95% |
| CCC(C)[C@H]1O[C@]2(CC[C@@H]1C)C[C@@H]1C[C@@H](C/C=C(\C)[C@@H](O[C@H]3C[C@H](OC)[C@@H](O[C@H]4C[C@H](OC)[C@H](NC(=O)COC)[C@H](C)O4)[C@H](C)O3)[C@@H](C)/C=C/C=C3\CO[C@@H]4[C@H](O)C(C)=C[C@@H](C(=O)O1)[C@]34O)O2 (stereo not given in full) | >95% | >95% | >95% | >95% | >95% | 76% | 870 ng/mL |  |  |  |  |  |  |  |
| CCC(C)[C@H]1O[C@]2(C=C[C@@H]1C)C[C@@H]1C[C@@H](C/C=C(\C)[C@@H](O[C@H]3C[C@H](OC)[C@@H](O[C@H]4C[C@H](OC)[C@H](NC(=O)C(F)(F)F)[C@H](C)O4)[C@H](C)O3)[C@@H](C)/C=C/C=C3\CO[C@@H]4[C@H](O)C(C)=C[C@@H](C(=O)O1)[C@]34O)O2 (stereo not given in full) | >95% | <50% | >95% | >95% | >95% | >95% | 27800 ng/mL |  |  |  |  |  |  |  |
| CCC(C)[C@H]1O[C@]2(C=C[C@@H]1C)C[C@@H]1C[C@@H](C/C=C(\C)[C@@H](O[C@H]3C[C@H](OC)[C@@H](O[C@H]4C[C@H](OC)[C@H](NC(=O)C(C)(C)C)[C@H](C)O4)[C@H](C)O3)[C@@H](C)/C=C/C=C3\CO[C@@H]4[C@H](O)C(C)=C[C@@H](C(=O)O1)[C@]34O)O2 (stereo not given in full) | >95% | 76% | >95% | >95% | 76% | 76% | 1730 ng/mL |  |  |  |  |  |  |  |
| CCCCCCCCN[C@@H]1[C@H](C)O[C@@H](O[C@H]2[C@H](C)O[C@@H](O[C@@H]3/C(C)=C/C[C@@H]4C[C@@H](C[C@]5(C=C[C@H](C)[C@@H](C(C)CC)O5)O4)OC(=O)[C@@H]4C=C(C)[C@@H](O)[C@H]5OC/C(=C\C=C\[C@@H]3C)[C@]54O)C[C@@H]2OC)C[C@@H]1OC (stereo not given in full) | <50% | <50% | <50% | <50% | <50% | <50% | >55500 ng/mL |  |  |  |  |  |  |  |
| CCC(C)[C@H]1O[C@]2(CC[C@@H]1C)C[C@@H]1C[C@@H](C/C=C(\C)[C@@H](O[C@H]3C[C@H](OC)[C@@H](O[C@H]4C[C@H](OC)[C@H](N)[C@H](C)O4)[C@H](C)O3)[C@@H](C)/C=C/C=C3\CO[C@@H]4[C@H](O)C(C)=C[C@@H](C(=O)O1)[C@]34O)O2 (stereo not given in full) | >95% | >95% | >95% | >95% | <50% | <50% | 1730 ng/mL |  |  |  |  |  |  |  |
| CCC(C)[C@H]1O[C@]2(C=C[C@@H]1C)C[C@@H]1C[C@@H](C/C=C(\C)[C@@H](O[C@H]3C[C@H](OC)[C@@H](O[C@H]4C[C@H](OC)[C@@H](N)[C@H](C)O4)[C@H](C)O3)[C@@H](C)/C=C/C=C3\CO[C@@H]4[C@H](O)C(C)=C[C@@H](C(=O)O1)[C@]34O)O2 (stereo not given in full) | >95% | >95% | >95% | >95% | <50% | <50% | 2600 ng/mL |  |  |  |  |  |  |  |
| CCC(C)[C@H]1O[C@]2(C=C[C@@H]1C)C[C@@H]1C[C@@H](C/C=C(\C)[C@@H](O[C@H]3C[C@H](OC)[C@@H](O[C@H]4C[C@H](OC)[C@H](NC(C)=O)[C@H](C)O4)[C@H](C)O3)[C@@H](C)/C=C/C=C3\CO[C@@H]4[C@H](O)C(C)=C[C@@H](C(=O)O1)[C@]34O)O2 (stereo not given in full) |  |  |  |  |  |  | 540 ng/mL | >95% | >95% | >95% |  | >95% | >95% | >95% |
| CCC(C)[C@H]1O[C@]2(C=C[C@@H]1C)C[C@@H]1C[C@@H](C/C=C(\C)[C@@H](O[C@H]3C[C@H](OC)[C@@H](O[C@H]4C[C@H](OC)[C@H](NC)[C@H](C)O4)[C@H](C)O3)[C@@H](C)/C=C/C=C3\CO[C@@H]4[C@H](O)C(C)=C[C@@H](C(=O)O1)[C@]34O)O2 (stereo not given in full) | >95% | >95% | >95% | >95% | >95% | 76% | 1730 ng/mL |  |  |  |  |  |  |  |
| CCC(C)[C@H]1O[C@]2(C=C[C@@H]1C)C[C@@H]1C[C@@H](C/C=C(\C)[C@@H](O[C@H]3C[C@H](OC)[C@@H](O[C@H]4C[C@H](OC)[C@@H](O)[C@H](C)O4)[C@H](C)O3)[C@@H](C)/C=C/C=C3\CO[C@@H]4[C@H](O)C(C)=C[C@@H](C(=O)O1)[C@]34O)O2 (stereo not given in full) [AVERMECTIN] | >95% | >95% | >95% | >95% | >95% | >95% | 296 ng/mL |  |  |  |  |  |  |  |
| CCC(C)[C@H]1O[C@]2(C=C[C@@H]1C)C[C@@H]1C[C@@H](C/C=C(\C)[C@@H](O[C@H]3C[C@H](OC)[C@@H](O[C@H]4C[C@H](OC)[C@H](NCCO)[C@H](C)O4)[C@H](C)O3)[C@@H](C)/C=C/C=C3\CO[C@@H]4[C@H](O)C(C)=C[C@@H](C(=O)O1)[C@]34O)O2 (stereo not given in full) | >95% | >95% | >95% | >95% | <50% | 76% | 3470 ng/mL |  |  |  |  |  |  |  |
